Assays:
[1] = tested on: carbapenem-susceptible A. baumannii isolates (n = 54); experiment: MIC, broth microdilution (EUCAST), carbapenem-susceptible A. baumannii isolates; assay type: cell-based, Acinetobacter baumannii
Source text: (§1) The bacterial strains used in this study comprised 208 clinical isolates from the Spanish National Acinetobacter spp. 2020 Multicenter Collection, which was previously characterized in detail by our research group, including whole-genome sequencing, phylogenetics studies, clonal dynamics, and resistance mechanisms ([2], [29]). Additionally, a collection of A. baumannii ATCC 17978 transformants coding the blaOXA-23, blaOXA-24/40, blaOXA-51, blaOXA-58, blaOXA-143, and blaOXA-201 genes, previously constructed and described by our group ([30]), was used to determine the activity of enmetazobactam against strains carrying the main CHDLs of A. baumannii.
(§2) The antimicrobial susceptibility of the 208 Acinetobacter spp. isolates was assessed using the broth microdilution method, as described in the European Committee on Antimicrobial Susceptibility Testing (EUCAST) v.15 guidelines (http://www.eucast.org/clinical_breakpoints). […] MICs for enmetazobactam alone were assessed as well. […] Subsequently, MIC testing was also conducted with a collection of A. baumannii ATCC 17978 transformants expressing clinically relevant OXA-like carbapenemase genes.
(§3) The A. baumannii ATCC 19606 strain was used as the reference strain in all susceptibility experiments, in duplicate assays. Antibiotics were purchased from Sigma-Aldrich, except enmetazobactam and durlobactam, which were obtained from Advanz Pharma and MedChemExpress, respectively.

[2] = tested on: carbapenem-resistant A. baumannii (CRAB) isolates (n = 67); experiment: MIC, broth microdilution (EUCAST), carbapenem-resistant A. baumannii isolates; assay type: cell-based, Acinetobacter baumannii; conditions: Acinetobacter baumannii
Source text: as §1, §2, §3

[3] = Acinetobacter baumannii, carbapenem-susceptible A. baumannii isolates (n = 54), ETZ fixed 8 mg/L in combinations

C[n+]1ccn(C[C@@]2(C)[C@H](C(=O)[O-])N3C(=O)C[C@H]3S2(=O)=O)n1 [enmetazobactam]
3.7: MIC distribution 1 ([1]; cumulative share of carbapenem-susceptible A. baumannii isolates (n = 54) at MIC 1 mg/L, ETZ fixed 8 mg/L in combinations)
4 µg/mL: MIC ([1]; Acinetobacter baumannii, MBC set, isolate Ab34, A. baumannii ST 2182, ADC-2, OXA-130, non-CHDLs-producing) | MIC ([1]; Acinetobacter baumannii, isolate Ab1, ST 164, ADC-6, OXA-91, in combinations ETZ fixed at 8 mg/L) | MIC ([1]; Acinetobacter baumannii, isolate Ab11, ST 239, ADC-2, OXA-51, in combinations ETZ fixed at 8 mg/L) | MIC ([1]; Acinetobacter baumannii, isolate Ab34, ST 2182, ADC-2, OXA-130, in combinations ETZ fixed at 8 mg/L) | MIC ([1]; Acinetobacter baumannii, isolate Ab38, ST 866, ADC-2, OXA-385, in combinations ETZ fixed at 8 mg/L) | MIC ([1]; Acinetobacter baumannii, isolate Ab40, ST 2176, ADC-2, OXA-64, in combinations ETZ fixed at 8 mg/L) | MIC ([1]; Acinetobacter baumannii, isolate Ab50, ST 2176, ADC-2, OXA-64, in combinations ETZ fixed at 8 mg/L) | MIC ([1]; Acinetobacter baumannii, isolate Ab58, ST 6, ADC-2, OXA-94, in combinations ETZ fixed at 8 mg/L) | MIC ([1]; Acinetobacter baumannii, isolate Ab61, ST 1639, ADC-7, OXA-64, in combinations ETZ fixed at 8 mg/L) | MIC ([1]; Acinetobacter baumannii, isolate Ab62, ST 265, ADC-2, OXA-91, in combinations ETZ fixed at 8 mg/L) | MIC ([1]; Acinetobacter baumannii, isolate Ab67, ST 1, ADC-11, OXA-69, in combinations ETZ fixed at 8 mg/L) | MIC ([1]; Acinetobacter baumannii, isolate Ab79, ST 106, ADC-11, OXA-78, in combinations ETZ fixed at 8 mg/L) | MIC ([1]; Acinetobacter baumannii, isolate Ab80, ST 2182, ADC-6, OXA-208, in combinations ETZ fixed at 8 mg/L) | MIC ([1]; Acinetobacter baumannii, isolate Ab81, ST 25, ADC-79, OXA-64, in combinations ETZ fixed at 8 mg/L) | MIC ([1]; Acinetobacter baumannii, isolate Ab93, ST 25, ADC-79, OXA-64, in combinations ETZ fixed at 8 mg/L) | MIC ([1]; Acinetobacter baumannii, isolate Ab110, ST 1623, ADC-3, OXA-70, in combinations ETZ fixed at 8 mg/L) | MIC ([1]; Acinetobacter baumannii, isolate Ab127, ST 2176, ADC-2, OXA-64, in combinations ETZ fixed at 8 mg/L) | MIC ([1]; Acinetobacter baumannii, isolate Ab136, ST 2183, ADC-like, OXA-66, in combinations ETZ fixed at 8 mg/L) | MIC ([1]; Acinetobacter baumannii, isolate Ab139, ST 54, ADC-like, OXA-365, in combinations ETZ fixed at 8 mg/L) | MIC ([1]; Acinetobacter baumannii, isolate Ab143, ST 1328, ADC-76, OXA-408, in combinations ETZ fixed at 8 mg/L) | MIC ([1]; Acinetobacter baumannii, isolate Ab150, ST 2184, ADC-like, OXA-64, in combinations ETZ fixed at 8 mg/L) | MIC ([1]; Acinetobacter baumannii, isolate Ab152, ST 132, ADC-2, OXA-120, in combinations ETZ fixed at 8 mg/L) | MIC ([1]; Acinetobacter baumannii, isolate Ab170, ST 2110, ADC-4, OXA-338, in combinations ETZ fixed at 8 mg/L) | MIC ([1]; Acinetobacter baumannii, isolate Ab185, ST 2, ADC-26, OXA-66, in combinations ETZ fixed at 8 mg/L) | MIC ([1]; Acinetobacter baumannii, isolate Ab188, ST 203, ADC-6, OXA-217, PDC-1, in combinations ETZ fixed at 8 mg/L) | MIC90 [1, 3]
96.3: MIC distribution 4 ([1]; cumulative share of carbapenem-susceptible A. baumannii isolates (n = 54) at MIC 4 mg/L, ETZ fixed 8 mg/L in combinations)
0: MIC distribution 0.12 [1] | MIC distribution 0.25 ([1]; cumulative share of carbapenem-susceptible A. baumannii isolates (n = 54) at MIC 0.25 mg/L, ETZ fixed 8 mg/L in combinations) | MIC distribution 0.5 ([1]; cumulative share of carbapenem-susceptible A. baumannii isolates (n = 54) at MIC 0.5 mg/L, ETZ fixed 8 mg/L in combinations) | MIC distribution ≤0.06 ([1]; cumulative share of carbapenem-susceptible A. baumannii isolates (n = 54) at MIC ≤0.06 mg/L, ETZ fixed 8 mg/L in combinations)
2 µg/mL: MIC ([1]; Acinetobacter baumannii, MBC set, isolate Ab1, A. baumannii ST 164, ADC-6, OXA-91, non-CHDLs-producing) | MIC ([1]; Acinetobacter baumannii, MBC set, isolate Ab11, A. baumannii ST 239, ADC-2, OXA-51, non-CHDLs-producing) | MIC ([1]; Acinetobacter baumannii, isolate Ab57, ST 1470, ADC-58, OXA-106, in combinations ETZ fixed at 8 mg/L) | MIC ([1]; Acinetobacter baumannii, isolate Ab95, ST 582, ADC-5, OXA-317, in combinations ETZ fixed at 8 mg/L) | MIC ([1]; Acinetobacter baumannii, isolate Ab96, ST 582, ADC-5, OXA-317, in combinations ETZ fixed at 8 mg/L) | MIC ([1]; Acinetobacter baumannii, isolate Ab100, ST 145, ADC-58, OXA-343, in combinations ETZ fixed at 8 mg/L) | MIC ([1]; Acinetobacter baumannii, isolate Ab112, ST 193, ADC-like, OXA-120, in combinations ETZ fixed at 8 mg/L) | MIC ([1]; Acinetobacter baumannii, isolate Ab124, ST 2176, ADC-2, OXA-64, in combinations ETZ fixed at 8 mg/L) | MIC ([1]; Acinetobacter baumannii, isolate Ab128, ST 2176, ADC-2, OXA-64, in combinations ETZ fixed at 8 mg/L) | MIC ([1]; Acinetobacter baumannii, isolate Ab130, ST 32, ADC-79, OXA-100, in combinations ETZ fixed at 8 mg/L) | MIC ([1]; Acinetobacter baumannii, isolate Ab131, ST 687, ADC-like, OXA-208, in combinations ETZ fixed at 8 mg/L) | MIC ([1]; Acinetobacter baumannii, isolate Ab132, ST 1112, ADC-79, OXA-89, in combinations ETZ fixed at 8 mg/L) | MIC ([1]; Acinetobacter baumannii, isolate Ab158, ST 2034, ADC-2, OXA-217, in combinations ETZ fixed at 8 mg/L) | MIC ([1]; Acinetobacter baumannii, isolate Ab163, ST 132, ADC-2, OXA-120, in combinations ETZ fixed at 8 mg/L) | MIC ([1]; Acinetobacter baumannii, isolate Ab167, ST 1623, ADC-like, OXA-345, in combinations ETZ fixed at 8 mg/L) | MIC ([1]; Acinetobacter baumannii, isolate Ab168, ST 1470, ADC-75, OXA-402, in combinations ETZ fixed at 8 mg/L) | MIC ([1]; Acinetobacter baumannii, isolate Ab172, ST 2185, ADC-5, OXA-217, in combinations ETZ fixed at 8 mg/L) | MIC ([1]; Acinetobacter baumannii, isolate Ab187, ST 105, ADC-2, OXA-430, in combinations ETZ fixed at 8 mg/L) | MIC ([1]; Acinetobacter baumannii, isolate Ab189, ST 1405, ADC-3, OXA-120, in combinations ETZ fixed at 8 mg/L) | MIC ([1]; Acinetobacter baumannii, isolate Ab190, ST 2186, ADC-6, OXA-413, in combinations ETZ fixed at 8 mg/L) | MIC ([1]; Acinetobacter baumannii, isolate Ab193, ST 164, ADC-6, OXA-91, in combinations ETZ fixed at 8 mg/L) | MIC ([1]; Acinetobacter baumannii, isolate Ab195, ST 1, ADC-11, OXA-69, in combinations ETZ fixed at 8 mg/L) | MIC ([1]; Acinetobacter baumannii, isolate Ab200, ST 1336, ADC-2, OXA-51, in combinations ETZ fixed at 8 mg/L) | MIC ([1]; Acinetobacter baumannii, isolate Ab202, ST 1, ADC-11, OXA-69, in combinations ETZ fixed at 8 mg/L) | MIC ([1]; Acinetobacter baumannii, isolate Ab203, ST 221, ADC-6, OXA-88, in combinations ETZ fixed at 8 mg/L) | MIC ([1]; Acinetobacter baumannii, isolate Ab206, ST 2187, ADC-58, OXA-69, in combinations ETZ fixed at 8 mg/L) | MIC ([1]; Acinetobacter baumannii, isolate Ab213, in combinations ETZ fixed at 8 mg/L) | MIC ([1]; Acinetobacter baumannii, isolate Ab218, in combinations ETZ fixed at 8 mg/L) | MIC50 [1, 3]
8 µg/mL: MIC ([1]; Acinetobacter baumannii, isolate Ab142, ST 1, ADC-like, OXA-69, in combinations ETZ fixed at 8 mg/L) | MIC ([1]; Acinetobacter baumannii, isolate Ab149, ST 1112, ADC-6, OXA-407, in combinations ETZ fixed at 8 mg/L) | MIC ([2]; MBC set, isolate Ab9, A. baumannii ST 2, ADC-30, OXA-66, OXA-23, TEM-12)
1 µg/mL: MIC ([1]; Acinetobacter baumannii, isolate Ab209, in combinations ETZ fixed at 8 mg/L) | MIC ([1]; Acinetobacter baumannii, isolate Ab220, in combinations ETZ fixed at 8 mg/L)
100: MIC distribution 8 ([1]; cumulative share of carbapenem-susceptible A. baumannii isolates (n = 54) at MIC 8 mg/L, ETZ fixed 8 mg/L in combinations) | MIC distribution 16 ([1]; cumulative share of carbapenem-susceptible A. baumannii isolates (n = 54) at MIC 16 mg/L, ETZ fixed 8 mg/L in combinations) | MIC distribution ≥32 ([1]; cumulative share of carbapenem-susceptible A. baumannii isolates (n = 54) at MIC ≥32 mg/L, ETZ fixed 8 mg/L in combinations)
51.9: MIC distribution 2 ([1]; cumulative share of carbapenem-susceptible A. baumannii isolates (n = 54) at MIC 2 mg/L, ETZ fixed 8 mg/L in combinations)
64 µg/mL: MIC ([2]; MBC set, isolate Ab4, A. baumannii ST 2, ADC-30, OXA-66, ISAba1-OXA-23) | MIC ([2]; MBC set, isolate Ab6, A. baumannii ST 2, ADC-30, OXA-66, ISAba1-OXA-23, TEM-12) | MIC ([2]; isolate Ab56, ST 1, ADC-75, OXA-69, OXA-23, ETZ fixed 8 mg/L in combinations) | MIC ([2]; isolate Ab83, ST 25, ADC-5, OXA-64, OXA-23, DUR fixed at 4 mg/L in combinations)
